Counter-ions that a name gives are not always drawn.
What was measured:
[1] = molecular target: T1, human recombinant SSAO/VAP-1 (Homo sapiens, UniProt Q16853); assay: Human recombinant SSAO/VAP-1 amine oxidase inhibition; format: biochemical; settings: 30 min preincubation at 37° C., 600 μM benzylamine
T1 construct: a cloned cDNA template corresponding to residues 34-763 of human SSAO/VAP-1; TEV cleavage site (N); made in house
T1 sequence (Q16853 34-763): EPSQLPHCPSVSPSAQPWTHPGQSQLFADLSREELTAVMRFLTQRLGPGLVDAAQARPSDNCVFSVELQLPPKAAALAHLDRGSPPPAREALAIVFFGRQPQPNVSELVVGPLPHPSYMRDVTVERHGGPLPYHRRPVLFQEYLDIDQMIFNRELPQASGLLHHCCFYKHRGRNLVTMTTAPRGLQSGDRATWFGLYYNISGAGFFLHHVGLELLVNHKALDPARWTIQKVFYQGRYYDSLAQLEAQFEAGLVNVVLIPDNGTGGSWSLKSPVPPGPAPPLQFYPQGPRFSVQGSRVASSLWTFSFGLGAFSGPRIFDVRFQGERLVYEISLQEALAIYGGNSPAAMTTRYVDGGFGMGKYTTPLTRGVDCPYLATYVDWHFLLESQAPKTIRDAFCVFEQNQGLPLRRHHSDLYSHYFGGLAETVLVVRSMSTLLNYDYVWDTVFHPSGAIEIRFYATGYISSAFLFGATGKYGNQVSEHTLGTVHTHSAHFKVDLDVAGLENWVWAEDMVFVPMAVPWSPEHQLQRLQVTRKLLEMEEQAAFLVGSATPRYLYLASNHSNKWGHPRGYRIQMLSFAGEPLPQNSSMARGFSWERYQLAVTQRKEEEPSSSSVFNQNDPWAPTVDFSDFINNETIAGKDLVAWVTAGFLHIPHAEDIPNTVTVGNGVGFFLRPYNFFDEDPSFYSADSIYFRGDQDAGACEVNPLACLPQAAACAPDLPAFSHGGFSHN
Method: Method to Determine the Ability of Compounds of Formula I to Inhibit Human Recombinant SSAO/VAP-1
Human recombinant SSAO/VAP-1 amine oxidase activity was determined using the coupled colorimetric method as described for monoamine oxidase, copper-containing amine oxidases and related enzymes (Holt A. and Palcic M., A peroxidase-coupled continuous absorbance plate-reader assay for flavin monoamine oxidases, copper-containing amine oxidases and related enzymes. Nat Protoc 2006; 1: 2498-2505). Briefly, a cloned cDNA template corresponding to residues 34-763 of human SSAO/VAP-1, and incorporating a mouse Ig kappa (κ) signal sequence, N-terminal flag epitope tag and tobacco etch virus (TEV) cleavage site, was assembled in a mammalian expression vector (pLO-CMV) by Geneart AG. This vector containing human SSAO/VAP-1 residues was transfected into CHO-K1 glycosylation mutant cell line, Lec 8. A clone stably expressing human SSAO/VAP-1 was isolated and cultured in large scale. Active human SSAO/VAP-I was purified and recovered using immunoaffinity chromatography. This was used as the source for SSAO/VAP-1 activity. A high-throughput colorimetric assay was developed using either 96 or 384 well format. Briefly, in a standard 96 well plate assay 50 μL of purified human SSAO/VAP-1 (0.25 μg/mL) in 0.1 M sodium phosphate buffer (pH 7.4) was added into each well. Test compounds were dissolved in DMSO and tested in a Concentration Response Curve (CRC) with 4-11 data points, typically in the micromolar or nanomolar range after incubation with human SSAO/VAP-1 for 30 min at 37° C. After 30 min incubation, 50 μL of the reaction mixture containing 600 μM benzylamine (Sigma Aldrich), 120 μM Amplex Red (Sigma Aldrich) and 1.5 U/mL horseradish peroxidase (Sigma Aldrich) prepared in 0.1 M sodium phosphate buffer (pH 7.4) were added to the corresponding well. The fluorescence unit (RFU) was read every 2.5 min for 30 min at 37° C. excitation 565 nm and emission 590 (Optima; BMG labtech). The slope of the kinetics for each well was calculated using MARS data analysis software (BMG labtech) and this value was used to deduce the IC50 value (Dotmatics).

[2] = molecular target: T2, Bovine LOX (Bos taurus, UniProt P33072); assay: LOX amine oxidase inhibition, peroxidase-coupled Amplex Red assay; format: biochemical; settings: 30 min preincubation at 37° C., putrescine substrate
T2 sequence (P33072 170-418): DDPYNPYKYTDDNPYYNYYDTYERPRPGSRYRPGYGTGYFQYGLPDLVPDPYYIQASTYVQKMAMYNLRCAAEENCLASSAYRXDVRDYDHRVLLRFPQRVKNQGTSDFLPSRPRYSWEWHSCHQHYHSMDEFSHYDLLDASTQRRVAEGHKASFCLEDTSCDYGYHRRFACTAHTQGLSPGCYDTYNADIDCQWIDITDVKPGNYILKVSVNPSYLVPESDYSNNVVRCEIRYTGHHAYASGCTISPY
Outline: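 Bovine LOX in 1.2 M urea, 50 mM sodium borate pH 8.2 […]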

Row | IC50 [1] [µM] | IC50 [2] [µM] | SMILES
1 | < 10 | < 10 | Cc1nn(Cc2ccc(S(=O)(=O)N(C)C)cc2)c(C)c1C/C(F)=C/CN [Compound 10, (Z)-4-((4-(4-amino-2-fluorobut-2-en-1-yl)-3,5-dimethyl-1H-pyrazol-1-yl)methyl)-N,N-dimethylbenzenesulfonamide hydrochloride]
2 | < 10 | < 10 | Cc1nn(C/C(F)=C/CN)c(C)c1Cc1ccc(S(=O)(=O)NC(C)C)cc1 [Compound 11, (Z)-4-((1-(4-amino-2-fluorobut-2-en-1-yl)-3,5-dimethyl-1H-pyrazol-4-yl)methyl)-N-isopropyl benzenesulfonamide hydrochloride]
3 | < 10 | < 10 | Cc1nn(C/C(F)=C/CN)c(C)c1Cc1ccc(S(C)(=O)=O)cc1Cl [Compound 12, (Z)-4-(4-(2-chloro-4-(methylsulfonyl)benzyl)-3,5-dimethyl-1H-pyrazol-1-yl)-3-fluorobut-2-en-1-amine hydrochloride]
4 | > 30 | < 10 | CCc1nn(C/C(F)=C/CN)c(CC)c1Cc1ccc(S(=O)(=O)N(C)C)cc1 [Compound 13, (Z)-4-((1-(4-amino-2-fluorobut-2-en-1-yl)-3,5-diethyl-1H-pyrazol-4-yl)methyl)-N,N-dimethyl benzenesulfonamide hydrochloride]
5 | > 30 | < 10 | Cc1nn(C/C(F)=C/CN)c(C)c1Cc1ccc(C(=O)N(C)C)cc1 [Compound 14, (Z)-4-((1-(4-amino-2-fluorobut-2-en-1-yl)-3,5-dimethyl-1H-pyrazol-4-yl)methyl)-N,N-dimethylbenzamide hydrochloride]
6 | > 10 | < 10 | Cc1nn(C/C(F)=C/CN)c(C)c1Cc1ccc(S(C)(=O)=O)c(Cl)c1 [Compound 16, (Z)-4-(4-(3-chloro-4-(methylsulfonyl)benzyl)-3,5-dimethyl-1H-pyrazol-1-yl)-3-fluorobut-2-en-1-amine hydrochloride]
7 | > 10 | > 10 | Cc1nn(C/C(F)=C/CN)c(C)c1Cc1ccc(S(=O)(=O)N(C)C)c(OC(F)(F)F)c1 [Compound 17, (Z)-4-((1-(4-amino-2-fluorobut-2-en-1-yl)-3,5-dimethyl-1H-pyrazol-4-yl)methyl)-N,N-dimethyl-2-(trifluoromethoxy)benzenesulfonamide hydrochloride]
8 | > 30 | < 10 | Cc1nn(C/C(F)=C/CN)c(C)c1Cc1ccc(S(=O)(=O)N(C)C)c(C(F)(F)F)c1 [Compound 18, (Z)-4-((1-(4-amino-2-fluorobut-2-en-1-yl)-3,5-dimethyl-1H-pyrazol-4-yl)methyl)-N,N-dimethyl-2-(trifluoromethyl)benzenesulfonamide hydrochloride]
9 | > 30 | < 10 | Cc1nn(C/C(F)=C/CN)c(C)c1Cc1cc(F)c(S(=O)(=O)N(C)C)cc1F [Compound 19, (Z)-4-((1-(4-amino-2-fluorobut-2-en-1-yl)-3,5-dimethyl-1H-pyrazol-4-yl)methyl)-2,5-difluoro-N,N-dimethylbenzenesulfonamide hydrochloride]
10 | < 10 | < 10 | CNS(=O)(=O)c1ccc(Cn2nc(C)c(C/C(F)=C/CN)c2C)c(Cl)c1 [Compound 20, (Z)-4-((4-(4-amino-2-fluorobut-2-en-1-yl)-3,5-dimethyl-1H-pyrazol-1-yl)methyl)-3-chloro-N-methylbenzenesulfonamide hydrochloride]
11 | < 10 | < 10 | Cc1nn(Cc2ccc(S(C)(=O)=O)cc2Cl)c(C)c1C/C(F)=C/CN [Compound 21, (Z)-4-(1-(2-chloro-4-(methylsulfonyl)benzyl)-3,5-dimethyl-1H-pyrazol-4-yl)-3-fluorobut-2-en-1-amine hydrochloride]
12 | > 10 | < 10 | CNS(=O)(=O)c1ccc(Cn2nc(C)c(C/C(F)=C/CN)c2C)cc1Cl [Compound 22, (Z)-4-((4-(4-amino-2-fluorobut-2-en-1-yl)-3,5-dimethyl-1H-pyrazol-1-yl)methyl)-2-chloro-N-methylbenzenesulfonamide hydrochloride]
13 | > 30 | < 10 | CNS(=O)(=O)c1ccc(Cn2nc(C)c(C/C(F)=C/CN)c2C)c(C(F)(F)F)c1 [Compound 23, (Z)-4-((4-(4-amino-2-fluorobut-2-en-1-yl)-3,5-dimethyl-1H-pyrazol-1-yl)methyl)-N-methyl-3-(trifluoromethyl)benzenesulfonamide hydrochloride]
14 | > 30 | < 10 | Cc1nn(Cc2ccc(S(C)(=O)=O)c(Cl)c2)c(C)c1C/C(F)=C/CN [Compound 24, (Z)-4-(1-(3-chloro-4-(methylsulfonyl)benzyl)-3,5-dimethyl-1H-pyrazol-4-yl)-3-fluorobut-2-en-1-amine hydrochloride]
15 | > 30 | < 10 | Cc1nn(Cc2cc(F)c(S(=O)(=O)N(C)C)cc2F)c(C)c1C/C(F)=C/CN [Compound 25, (Z)-4-((4-(4-amino-2-fluorobut-2-en-1-yl)-3,5-dimethyl-1H-pyrazol-1-yl)methyl)-2,5-difluoro-N,N-dimethylbenzenesulfonamide hydrochloride]
16 | < 10 | < 10 | CNS(=O)(=O)c1cc(F)c(Cn2nc(C)c(C/C(F)=C/CN)c2C)cc1F [Compound 26, (Z)-4-((4-(4-amino-2-fluorobut-2-en-1-yl)-3,5-dimethyl-1H-pyrazol-1-yl)methyl)-2,5-difluoro-N-methylbenzenesulfonamide hydrochloride]
17 | > 30 | < 10 | CCOC(=O)c1c(Cc2ccc(S(=O)(=O)N(C)C)cc2)c(C)nn1C/C(F)=C/CN [Compound 27, (Z)-ethyl 1-(4-amino-2-fluorobut-2-enyl)-4-(4-(N,N-dimethylsulfamoyl)benzyl)-3-methyl-1H-pyrazole-5-carboxylate hydrochloride]
18 | > 30 | < 10 | CCOC(=O)c1nn(C/C(F)=C/CN)c(C)c1Cc1ccc(S(=O)(=O)N(C)C)cc1 [Compound 28, (Z)-ethyl 1-(4-amino-2-fluorobut-2-enyl)-4-(4-(N,N-dimethylsulfamoyl)benzyl)-5-methyl-1H-pyrazole-3-carboxylate hydrochloride]
19 | > 30 | < 10 | Cc1nn(C/C(F)=C/CN)c(C(=O)N(C)C)c1Cc1ccc(S(=O)(=O)N(C)C)cc1 [Compound 29, (Z)-1-(4-amino-2-fluorobut-2-enyl)-4-(4-(N,N-dimethylsulfamoyl)benzyl)-N,N,3-trimethyl-1H-pyrazole-5-carboxamide hydrochloride]

Row | SMILES | IC50 [1] [µM] | IC50 [2] [µM]
20 | Cc1nn(C/C(F)=C/CN)c(C)c1Cc1ccc(S(=O)(=O)N(C)C)c(Cl)c1 [Compound 15, (Z)-4-((1-(4-amino-2-fluorobut-2-en-1-yl)-3,5-dimethyl-1H-pyrazol-4-yl)methyl)-2-chloro-N,N-dimethylbenzenesulfonamide hydrochloride] | < 10 | < 10
